Activity calls are given as the source filed them. How the calls were made is not given here.
Biological target: Dual specificity protein phosphatase 6 (Rattus norvegicus) (UniProt Q64346)
Test: catalase influence on rat DUSP6 inhibition – biochemical, catalase added, probe assessment, dose response (AID 564)
Conditions: recombinant MKP-3 phosphatase, fluorescence, with catalase

Sequence of Dual specificity protein phosphatase 6 (Rattus norvegicus) (Q64346 whole entry, looked up): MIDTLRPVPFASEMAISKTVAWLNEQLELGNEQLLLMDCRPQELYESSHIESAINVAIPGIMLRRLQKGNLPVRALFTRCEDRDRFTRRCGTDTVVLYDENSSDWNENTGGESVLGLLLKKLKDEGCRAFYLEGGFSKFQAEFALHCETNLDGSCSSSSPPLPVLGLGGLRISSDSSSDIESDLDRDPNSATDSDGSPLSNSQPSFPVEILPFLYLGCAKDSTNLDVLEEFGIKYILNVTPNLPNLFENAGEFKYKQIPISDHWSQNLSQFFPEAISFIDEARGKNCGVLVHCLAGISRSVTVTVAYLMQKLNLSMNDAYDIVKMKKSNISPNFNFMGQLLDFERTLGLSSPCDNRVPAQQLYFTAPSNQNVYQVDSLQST

O=C1C(C2=C(O)c3ccccc3C2=O)=Nc2ccccc21
IC50: > 50 µM (inactive)
